In PMC10934121 (Molecules, 2024):
Several values for one entry are separate records, joined by “and”; a condition that tells them apart may be missing. Identical values can stand only once. One block for each compound: values may come before it.

Key:
in vivo = format: in vivo, C57BL/6J mice; details: for Tmax: C57BL/6JRj, mouse, in vivo, 350 mg/kg
Experimental: (§1) All animal testing was performed with the European Communities Council Directive 2010/63/E.U. guidelines and approved by the Lithuania State Food and Veterinary Service, Animal Ethics Experimentation Committee (project G2-244). C57BL/6JRj mouse line animals (Janvier Labs, Le Genest-Saint-Isle, France) were used for all procedures. Before the experiment, animals were housed in groups under a 12 h light–dark cycle with a temperature of 21 ± 1 °C and humidity of 55 ± 10%. The experiment was conducted in 3 major phases (Figure 8).
Animals were starved for 1 h before the administration of the compounds. […] The animals then were housed in single cages and culled at different time points (30 min, 1 h, 2 h, 4 h, and 6 h). The organs were immediately extracted on ice and stored at –80 °C until further analysis. The inside of the intestines was cleaned before freezing. 3-Hydroxyindolin-2-one was administered by gavage at three doses (100 mg/kg, 200 mg/kg, and 400 mg/kg). The animals were culled 30 min after the administration. The organs were immediately removed on ice and stored at –80 °C until further analysis.
Organ samples were thawed, weighed, and homogenized (3 cycles ×30 s, using Benchmark the BeadBug 6 homogenizer, Sayreville, NJ, USA) in 1 mL of deionized water containing different concentrations of 1-methylindolin-2-one as an internal standard. Plasma samples were not homogenized and were subjected to liquid–liquid extraction directly. Organ homogenates were centrifuged at 16,000× g for 10 min at 4 °C. The supernatants were extracted three times with equal amounts of ethyl acetate. All three extracts were pooled and evaporated under reduced pressure (AES2000 SpeedVAC, Savant, Thermo Fisher Scientific, Waltham, MA, USA). The dried material was dissolved in 100 μL 50% methanol by vigorous shaking and centrifugation at 16,000× g for 5 min. The supernatant was subjected to HPLC/MS analysis.
(§2) Organ extracts were analyzed by HPLC/MS as described in [20]. […] Limits of detection (LOD) for HPLC determination of the metabolite concentrations were determined by using different concentrations of standard solutions and following the same extraction protocol as described above.

[1] = cited from earlier work
[2] = Plasma and brain concentration after oral administration of 3-hydroxyindolin-2-one; format: in vivo, C57BL/6J mice; details: 30 min after oral 3-hydroxyindolin-2-one 100, 200, 400 mg/kg
Experimental: as §1
Animals were starved for 1 h before the administration of the compounds. […] The animals then were housed in single cages and culled at different time points (30 min, 1 h, 2 h, 4 h, and 6 h). The organs were immediately extracted on ice and stored at –80 °C until further analysis. The inside of the intestines was cleaned before freezing. 3-Hydroxyindolin-2-one was administered by gavage at three doses (100 mg/kg, 200 mg/kg, and 400 mg/kg). The animals were culled 30 min after the administration. The organs were immediately removed on ice and stored at –80 °C until further analysis. […]
as §2

acetylcholinesterase = details: cited from earlier work
monoamine oxidase = details: cited from earlier work
[3] = Detection of 13C isotope-carrying metabolites after oral stable isotope-carrying indole (HPLC/MS); format: in vivo, C57BL/6J mice; details: 2 h after gavage of 13C (C2) indole; N = 1
Experimental: Since indole is produced endogenously by the gut microbiota from dietary compounds, it is possible that the metabolites identified in the organ extracts were produced from endogenous indole or other precursors rather than the exogenously supplied indole. […] We detected heavier isotopes of indolin-2-one and 3-hydroxyindolin-2-one in the brain, liver, cecum, small intestine, and colon 2 h after administration (Figure 4, Figures S1–S15). This confirmed the previous experiment and provided direct evidence that indole in the gut is a substrate for several metabolites that spread throughout the body and even to the brain.
as §1, with “The experiment was conducted in 3 major phases (Figure 8).” left out
as §2

[4] = parameters: method as in PMID 9572285; details: cited from earlier work
CBR3 = assay: Gene expression by real-time PCR after indole administration; format: in vivo, C57BL/6J mice; details: for CBR3 expression increase: liver
Experimental: as §1
(§3) The total RNA was isolated from the mice’s brain medulla and liver tissues using the TRIzol™ Plus RNA Purification Kit according to the manufacturer’s protocol (Thermo Fisher Scientific, Vilnius, Lithuania). To remove gDNA, samples were treated with dsDNase reagent (Thermo Fisher Scientific, Lithuania). cDNA was synthesized using a High-Capacity cDNA Reverse Transcription kit (Thermo Fisher Scientific, Lithuania) according to the manufacturer’s instructions. The expression of CYP1A2, CYP2E1, CYP2A5, CYP2C29, CBR1, CBR3, and GAPDH was analyzed by the QuantStudio™ 3 Real-Time PCR System (Thermo Fisher Scientific, Lithuania), using SYBR™ Green PCR Master Mix (Thermo Fisher Scientific, Lithuania). The following primer sequences were used: Cyp2c29_FW (5′-[…]-3′), Cyp2c29_RV (5′-[…]-3′), Cyp2a5_FW (5′-[…]-3′), Cyp2a5_RV (5′-[…]-3′), Cbr3_FW (5′-[…]-3′), Cbr3_RV (5′-[…]-3′), Cyp1a2_FW (5′-[…]-3′), Cyp1a2_RV (5′-[…]-3′), Cyp2e1_FW (5′-[…]-3′), Cyp2e1_RV (5′-[…]-3′), GAPDH_FW (5′-[…]-3′), GAPDH_RV (5′-[…]-3′), Cbr1_FW (5′-[…]-3′), Cbr1_RV (5′-[…]-3′). All samples were run in duplicates. Ct values were normalized to GAPDH using the delta–delta Ct method.

CYP2E1 = assay: as above; format: in vivo, C57BL/6J mice; details: liver
Experimental: as §1, §3

CBR1 = assay: as above; format: in vivo, C57BL/6J mice
Experimental: as §1, §3

CYP1A2 = assay: as above; format: in vivo, C57BL/6J mice; details: liver, 1 h after indole administration, increasing with time
Experimental: as §1, §3

[5] = 30 min after oral indole 350 mg/kg, individual mice (samples 1-2)
[6] = 30 min after oral indole 350 mg/kg, individual mice (samples 1-3)
[7] = 1 h after oral indole 350 mg/kg, individual mice (samples 1-3)
[8] = 2 h after oral indole 350 mg/kg, individual mice (samples 1-3)
[9] = 4 h after oral indole 350 mg/kg, individual mice (samples 1-3)
[10] = 6 h after oral indole 350 mg/kg, individual mice (samples 1-3)

Tmax (in vivo): 360 min
Tmax (in vivo; po): 30 min
Compound: O=C1Nc2ccccc2C1=O [Isatin, 3-hydroxy-2H-indol-2-one]
Isatin in the brain ([1]; after systemic administration): up to 5 nmol/g
Blood–brain barrier crossing [1]: cross the blood–brain barrier

Compound: O=C1Nc2ccccc2C1O (stereo not shown) [3-hydroxyindolin-2-one, 3-hydroxy-1,3-dihydro-2H-indol-2-one]
Concentration in brain [2]: significant dose-dependent increase
Concentration in plasma [2]: significant dose-dependent increase
Concentration in cecum extracts (in vivo; [5]): 22.14 nmol/g and 29.66 nmol/g
Concentration in brain extracts (in vivo; [6]): 54.77 nmol/g and 76.19 nmol/g and 69.87 nmol/g
Concentration in large intestine (LI) extracts (in vivo; [6]): 45.32 nmol/g and 75.39 nmol/g and 41.71 nmol/g
Concentration in liver extracts (in vivo; [6]): 7.43 nmol/g and 14.12 nmol/g and 15.72 nmol/g
Concentration in plasma (in vivo; [6]): BDL
Concentration in small intestine (SI) extracts (in vivo; [6]): 76.51 nmol/g and 53.50 nmol/g and 66.77 nmol/g
Concentration in brain extracts (in vivo; [7]): 65.73 nmol/g and 37.10 nmol/g and 68.54 nmol/g
Concentration in cecum extracts (in vivo; [7]): 18.19 nmol/g and 12.89 nmol/g and 17.05 nmol/g
Concentration in large intestine (LI) extracts (in vivo; [7]): 30.45 nmol/g and 6.37 nmol/g and 58.67 nmol/g
Concentration in liver extracts (in vivo; [7]): 64.90 nmol/g and 46.68 nmol/g and 86.61 nmol/g
Concentration in plasma (in vivo; [7]): BDL
Concentration in small intestine (SI) extracts (in vivo; [7]): 52.78 nmol/g and 4.63 nmol/g and BDL
Concentration in brain extracts (in vivo; [8]): BDL
Concentration in cecum extracts (in vivo; [8]): 7.06 nmol/g and 19.80 nmol/g and 10.80 nmol/g
Concentration in large intestine (LI) extracts (in vivo; [8]): BDL
Concentration in liver extracts (in vivo; [8]): 63.22 nmol/g and BDL
Concentration in plasma (in vivo; [8]): BDL
Concentration in small intestine (SI) extracts (in vivo; [8]): BDL (2×) and 48.78 nmol/g
Concentration in brain extracts (in vivo; [9]): BDL
Concentration in cecum extracts (in vivo; [9]): 21.81 nmol/g and 17.61 nmol/g and BDL
Concentration in large intestine (LI) extracts (in vivo; [9]): BDL
Concentration in liver extracts (in vivo; [9]): 18.61 nmol/g and BDL and 6.72 nmol/g
Concentration in plasma (in vivo; [9]): BDL (2×) and 15.47 nmol/g
Concentration in small intestine (SI) extracts (in vivo; [9]): BDL (2×) and 24.91 nmol/g
Concentration in brain extracts (in vivo; [10]): BDL
Concentration in cecum extracts (in vivo; [10]): 35.22 nmol/g and BDL and 13.51 nmol/g
Concentration in large intestine (LI) extracts (in vivo; [10]): 18.68 nmol/g and BDL and 33.36 nmol/g
Concentration in liver extracts (in vivo; [10]): BDL
Concentration in plasma (in vivo; [10]): BDL
Concentration in small intestine (SI) extracts (in vivo; [10]): BDL
Presence in the brain (in vivo; after oral indole 350 mg/kg): found in the brain
Time of highest concentrations in liver, small intestine and brain (in vivo; after oral indole 350 mg/kg): 1 h
Inhibitory effect on acetylcholinesterase compared to isatin (acetylcholinesterase): lower inhibitory effect
Inhibitory effect on monoamine oxidase compared to isatin (monoamine oxidase): lower inhibitory effect
Heavier (13C) isotope of metabolite in brain, liver, cecum, small intestine and colon [3]: detected

Compound: O=C1Cc2ccccc2N1 [Indolin-2-one, 1,3-dihydro-2H-indol-2-one]
Effect of low doses in the blood ([4]; 10 mg/kg): reduced blood pressure and mild sedation
Effect of high doses ([4]; 100 mg/kg): coma and death
Tmax (in vivo; po): 30 min
Heavier (13C) isotope of metabolite in brain, liver, cecum, small intestine and colon [3]: detected
Blood–brain barrier crossing [1]: cross the blood–brain barrier

Compound: c1ccc2[nH]ccc2c1 [Indole, indole]
Concentration in cecum extracts (in vivo; [5]): 37.54 nmol/g and 22.73 nmol/g
Concentration in brain extracts (in vivo; [6]): 59.54 nmol/g and 147.88 nmol/g and 22.10 nmol/g
Concentration in large intestine (LI) extracts (in vivo; [6]): 119.49 nmol/g and 137.49 nmol/g and 66.42 nmol/g
Concentration in liver extracts (in vivo; [6]): 156.1 nmol/g and 54.56 nmol/g and 3.21 nmol/g
Concentration in plasma (in vivo; [6]): 170.99 nmol/g and 96.67 nmol/g and 15.31 nmol/g
Concentration in brain extracts (in vivo; [7]): 4.75 nmol/g and BDL and 5.84 nmol/g
Concentration in cecum extracts (in vivo; [7]): 29.05 nmol/g and 32.96 nmol/g and 48.99 nmol/g
Concentration in large intestine (LI) extracts (in vivo; [7]): 4.64 nmol/g and 2.89 nmol/g and 70.74 nmol/g
Concentration in liver extracts (in vivo; [7]): BDL
Concentration in plasma (in vivo; [7]): 6.73 nmol/g and 0.00 nmol/g and 10.19 nmol/g
Concentration in brain extracts (in vivo; [8]): BDL
Concentration in cecum extracts (in vivo; [8]): 7.99 nmol/g and 0.00 nmol/g and 24.86 nmol/g
Concentration in large intestine (LI) extracts (in vivo; [8]): 2.89 nmol/g and 7.18 nmol/g and 278.22 nmol/g
Concentration in liver extracts (in vivo; [8]): 67.36 nmol/g and 3.05 nmol/g and 414.1 nmol/g
Concentration in plasma (in vivo; [8]): 0.00 nmol/g (2×) and 5.68 nmol/g
Concentration in brain extracts (in vivo; [9]): BDL and 1.41 nmol/g
Concentration in cecum extracts (in vivo; [9]): 0.00 nmol/g and 12.47 nmol/g
Concentration in large intestine (LI) extracts (in vivo; [9]): 30.39 nmol/g and 11.51 nmol/g and 34.93 nmol/g
Concentration in liver extracts (in vivo; [9]): 8.76 nmol/g and 0.00 nmol/g and 97.7 nmol/g
Concentration in plasma (in vivo; [9]): 0.00 nmol/g (2×) and 3.97 nmol/g
Concentration in brain extracts (in vivo; [10]): BDL
Concentration in cecum extracts (in vivo; [10]): 0.00 nmol/g
Concentration in large intestine (LI) extracts (in vivo; [10]): 171.66 nmol/g and 231.01 nmol/g and 24.29 nmol/g
Concentration in liver extracts (in vivo; [10]): 80.7 nmol/g and 58.6 nmol/g and BDL
Concentration in plasma (in vivo; [10]): 0.00 nmol/g
Tmax (in vivo; po, read-out: Time of peak plasma concentration (converted)): 30 min
Presence in the brain (in vivo; after oral indole 350 mg/kg): found in the brain
Highest indole concentration (liver) (in vivo; liver, 2 h after ingestion of indole 350 mg/kg): 414.15 nmol/g
Time within which indole is metabolized (in vivo; oral indole 350 mg/kg): up to 6 h
CBR3 expression (CBR3; brain, 2 h after indole administration): slight increase
CBR3 expression increase (CBR3; 4 h after indole administration): 12 times
CBR3 expression increase (CBR3; 6 h after indole administration): 8 times
CYP2E1 expression (CYP2E1): mainly unchanged
CBR1 expression (CBR1; liver and brain, any time point after indole administration): unaffected
CBR1 expression level (CBR1; liver, after indole administration): not altered
CYP1A2 expression (CYP1A2): significant increase
